One assay deals with COG-LL-402h. As to the kind of experiment: selective drug sensitivity score (sDSS, relative to normal bone marrow) (sDSS (score)); higher = more potent and effective on the cell line relative to normal bone marrow cells. As to conditions: 72 h.
Take `CCOC(=O)CCNc1cc(N2CCc3ccccc3CC2)nc(-c2ccccn2)n1` [GSK-J4] (top concentration 100000 nM): the “selective drug sensitivity score” value was -7.88.
Still for that read-out and setting: in the case of `Cc1cc(Nc2cc(CN3CCOCC3)c3nc(C)c(Cc4ccc(Cl)cc4F)n3n2)n[nH]1` [Gandotinib] (top concentration 10000 nM) it was 5.28; in that of `NC(=O)NO` [Hydroxyurea] (top concentration 1000000 nM), 1.56; in that of `Cc1ccc(NC(=O)c2ccc(CN3CCN(C)CC3)cc2)cc1Nc1nccc(-c2cccnc2)n1` [Imatinib] (top concentration 10000 nM), -0.44.
Same read-out and setting: in the case of `CC(C)NC[C@@H](C(=O)N1CCN(c2ncnc3c2[C@H](C)C[C@H]3O)CC1)c1ccc(Cl)cc1` [Ipatasertib] (top concentration 10000 nM) it was 7.3; in that of `CCC(C)n1ncn(-c2ccc(N3CCN(c4ccc(OCC5COC(Cn6cncn6)(c6ccc(Cl)cc6Cl)O5)cc4)CC3)cc2)c1=O` (stereo not given) [Itraconazole] (top concentration 5000 nM), -2.12; in that of `Cc1sc2c(c1C)C(c1ccc(Cl)cc1)=N[C@@H](CC(=O)OC(C)(C)C)c1nnc(C)n1-2` [JQ1] (top concentration 10000 nM), 8.12.
The same measure, in the same setting: the figure for `CCNC(=O)c1noc(-c2cc(C(C)C)c(O)cc2O)c1-c1ccc(CN2CCOCC2)cc1` [Luminespib] (top concentration 1000 nM) is 4.1; for `O=C(c1cccc(Cl)c1F)N1CCN(Cc2cccc(Nc3nccs3)n2)CC1` [MK-8745] (top concentration 10000 nM) it is 14.1; for `Cc1ccc(NC(=O)c2ccc(CN3CCN(C)CC3)cc2)cc1Nc1nc(-c2cccnc2)cs1` [Masitinib] (top concentration 10000 nM) it is -1.48.
As for `CCN(CC)CCCC(C)Nc1c2ccc(Cl)cc2nc2ccc(OC)cc12` (stereo not given) [Mepacrine] (top concentration 50000 nM), the “selective drug sensitivity score” value worked out at 2.7.
The same measure, in the same setting: the figure for `COc1ccc(-c2ccc3ncc4c(c3c2)n(-c2ccc(N3CCNCC3)c(C(F)(F)F)c2)c(=O)n4C)cn1` [NVP-BGT226] (top concentration 1000 nM) is 5.92; for `COc1nc(N)nc2c1ncn2[C@@H]1O[C@H](CO)[C@@H](O)[C@@H]1O` [Nelarabine] (top concentration 10000 nM) it is -2.32; for `Cc1cn(-c2cc(NC(=O)c3ccc(C)c(Nc4nccc(-c5cccnc5)n4)c3)cc(C(F)(F)F)c2)cn1` [Nilotinib] (top concentration 10000 nM) it is 0.
Same read-out and setting: in the case of `NC(=O)c1cccc2cn(-c3ccc(C4CCCNC4)cc3)nc12` (stereo not given) [Niraparib] (top concentration 10000 nM) it was 8.48.
On the same count and under the same terms, the figure for `COc1ccc(C[C@H](NC(=O)[C@H](C)NC(=O)CN2CCOCC2)C(=O)N[C@@H](Cc2ccccc2)C(=O)[C@@]2(C)CO2)cc1` [ONX-0914] (top concentration 10000 nM) is 2.
Take `CC(=O)c1cnc2ccc(-c3cc(Cl)c(O)c(Cl)c3)nc2c1N[C@H]1CC[C@H](CN(C)C)CC1` [OTS167] (top concentration 1000 nM): the “selective drug sensitivity score” value came out at 7.08.
With `COC(=O)C[C@](O)(CCCC(C)(C)O)C(=O)O[C@@H]1C(OC)=C[C@]23CCCN2CCc2cc4c(cc2[C@H]13)OCO4` [Omacetaxine] (top concentration 10000 nM), the “selective drug sensitivity score” value is 7.92.

Another assay relates to HPB-ALL. Described as above. As to conditions: 72 h.
With `CCOC(=O)CCNc1cc(N2CCc3ccccc3CC2)nc(-c2ccccn2)n1` [GSK-J4] (top concentration 100000 nM), the “selective drug sensitivity score” value turned out to be 1.62.
Still for that read-out and setting: in the case of `Cc1cc(Nc2cc(CN3CCOCC3)c3nc(C)c(Cc4ccc(Cl)cc4F)n3n2)n[nH]1` [Gandotinib] (top concentration 10000 nM) it was 1.58; in that of `NC(=O)NO` [Hydroxyurea] (top concentration 1000000 nM), -1.24.
On the same count and under the same terms, in the case of `Cc1ccc(NC(=O)c2ccc(CN3CCN(C)CC3)cc2)cc1Nc1nccc(-c2cccnc2)n1` [Imatinib] (top concentration 10000 nM) it was 1.06; in that of `CC(C)NC[C@@H](C(=O)N1CCN(c2ncnc3c2[C@H](C)C[C@H]3O)CC1)c1ccc(Cl)cc1` [Ipatasertib] (top concentration 10000 nM), 0.9; in that of `CCC(C)n1ncn(-c2ccc(N3CCN(c4ccc(OCC5COC(Cn6cncn6)(c6ccc(Cl)cc6Cl)O5)cc4)CC3)cc2)c1=O` (stereo not given) [Itraconazole] (top concentration 5000 nM), 5.68.
For `Cc1sc2c(c1C)C(c1ccc(Cl)cc1)=N[C@@H](CC(=O)OC(C)(C)C)c1nnc(C)n1-2` [JQ1] (top concentration 10000 nM), the “selective drug sensitivity score” value worked out at 1.32.
`CCNC(=O)c1noc(-c2cc(C(C)C)c(O)cc2O)c1-c1ccc(CN2CCOCC2)cc1` [Luminespib] (top concentration 1000 nM): the “selective drug sensitivity score” value was -2.5.
With `O=C(c1cccc(Cl)c1F)N1CCN(Cc2cccc(Nc3nccs3)n2)CC1` [MK-8745] (top concentration 10000 nM), the “selective drug sensitivity score” value came out at 7.
Still for that read-out and setting: in the case of `Cc1ccc(NC(=O)c2ccc(CN3CCN(C)CC3)cc2)cc1Nc1nc(-c2cccnc2)cs1` [Masitinib] (top concentration 10000 nM) it was -4.18.
The same measure, in the same setting: in the case of `CCN(CC)CCCC(C)Nc1c2ccc(Cl)cc2nc2ccc(OC)cc12` (stereo not given) [Mepacrine] (top concentration 50000 nM) it was -6.8; in that of `COc1ccc(-c2ccc3ncc4c(c3c2)n(-c2ccc(N3CCNCC3)c(C(F)(F)F)c2)c(=O)n4C)cn1` [NVP-BGT226] (top concentration 1000 nM), -0.18.
Take `COc1nc(N)nc2c1ncn2[C@@H]1O[C@H](CO)[C@@H](O)[C@@H]1O` [Nelarabine] (top concentration 10000 nM): the “selective drug sensitivity score” value is -2.22.
Take `Cc1cn(-c2cc(NC(=O)c3ccc(C)c(Nc4nccc(-c5cccnc5)n4)c3)cc(C(F)(F)F)c2)cn1` [Nilotinib] (top concentration 10000 nM): the “selective drug sensitivity score” value stood at 0.
Same read-out and setting: the figure for `NC(=O)c1cccc2cn(-c3ccc(C4CCCNC4)cc3)nc12` (stereo not given) [Niraparib] (top concentration 10000 nM) is -3.32.
`COc1ccc(C[C@H](NC(=O)[C@H](C)NC(=O)CN2CCOCC2)C(=O)N[C@@H](Cc2ccccc2)C(=O)[C@@]2(C)CO2)cc1` [ONX-0914] (top concentration 10000 nM): the “selective drug sensitivity score” value was -2.4.
Regarding `CC(=O)c1cnc2ccc(-c3cc(Cl)c(O)c(Cl)c3)nc2c1N[C@H]1CC[C@H](CN(C)C)CC1` [OTS167] (top concentration 1000 nM), the “selective drug sensitivity score” value was -0.42.
As to `COC(=O)C[C@](O)(CCCC(C)(C)O)C(=O)O[C@@H]1C(OC)=C[C@]23CCCN2CCc2cc4c(cc2[C@H]13)OCO4` [Omacetaxine] (top concentration 10000 nM), the “selective drug sensitivity score” value is -4.48.

A further assay has as its system JURKAT. The description is as above. As to conditions: 72 h.
`CCOC(=O)CCNc1cc(N2CCc3ccccc3CC2)nc(-c2ccccn2)n1` [GSK-J4] (top concentration 100000 nM): the “selective drug sensitivity score” value was -5.98.
As for `Cc1cc(Nc2cc(CN3CCOCC3)c3nc(C)c(Cc4ccc(Cl)cc4F)n3n2)n[nH]1` [Gandotinib] (top concentration 10000 nM), the “selective drug sensitivity score” value came to 3.98.
For the compound `NC(=O)NO` [Hydroxyurea] (top concentration 1000000 nM), the “selective drug sensitivity score” value was 3.16.
Still for that read-out and setting: the figure for `Cc1ccc(NC(=O)c2ccc(CN3CCN(C)CC3)cc2)cc1Nc1nccc(-c2cccnc2)n1` [Imatinib] (top concentration 10000 nM) is 0.66.
Same read-out and setting: the figure for `CC(C)NC[C@@H](C(=O)N1CCN(c2ncnc3c2[C@H](C)C[C@H]3O)CC1)c1ccc(Cl)cc1` [Ipatasertib] (top concentration 10000 nM) is 7.1; for `CCC(C)n1ncn(-c2ccc(N3CCN(c4ccc(OCC5COC(Cn6cncn6)(c6ccc(Cl)cc6Cl)O5)cc4)CC3)cc2)c1=O` (stereo not given) [Itraconazole] (top concentration 5000 nM) it is 1.58.
Still for that read-out and setting: in the case of `Cc1sc2c(c1C)C(c1ccc(Cl)cc1)=N[C@@H](CC(=O)OC(C)(C)C)c1nnc(C)n1-2` [JQ1] (top concentration 10000 nM) it was -0.48; in that of `CCNC(=O)c1noc(-c2cc(C(C)C)c(O)cc2O)c1-c1ccc(CN2CCOCC2)cc1` [Luminespib] (top concentration 1000 nM), -5.5.
Regarding `O=C(c1cccc(Cl)c1F)N1CCN(Cc2cccc(Nc3nccs3)n2)CC1` [MK-8745] (top concentration 10000 nM), the “selective drug sensitivity score” value turned out to be 9.8.
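Further: ALL cell lines in 384-well plates, five doses spanning 10,000-fold, each plate scaled between vehicle and 100 µmol/L benzalkonium chloride controls, sDSS an adapted area-under-curve metric.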
